Measured values from patent US20120178786A9, “Use of tetramic acid derivatives for controlling pests by drenching, drip application, or dip application” (priority 2006, published 2012).

Tested on: Coccus viridis
Test: Example 11: drench of gardenia plants, Henderson-Tilton efficacy against nymphs
Assay type: in vivo
Conditions: 48 mg active substance/1 potting compost, 20 G
Description: Gardenia plants cv. […] The greenhouse temperature is 27° C. The test is evaluated 7, 15, 21 and 35 days after the treatment by determining the activity against nymphs on the leaves with the aid of the Henderson-Tilton method.

SMILES: CN/C(=N/CC1CCOC1)N[N+](=O)[O-] (stereo not shown) [Dinotefuran, dinotefuran]
- Henderson-Tilton efficacy (%) against Coccus viridis (7 d after treatment): 0%
- Henderson-Tilton efficacy (%) against Coccus viridis (15 d after treatment): 57%
- Henderson-Tilton efficacy (%) against Coccus viridis (21 d after treatment): 85%
- Henderson-Tilton efficacy (%) against Coccus viridis (35 d after treatment): 91%
